Experimental data from article PMC5278707, “Structure-Activity Relationships of a Series of Echinocandins and the Discovery of CD101, a Highly Stable and Soluble Echinocandin with Distinctive Pharmacokinetic Properties” (Antimicrobial Agents and Chemotherapy, 2017).
≈ marks a conversion by molar mass, not a printed value. Where two headings read alike, the source gives them in different places.

Experiments:
[1] = system: Aspergillus clavatus ATCC 10058; assay: CLSI broth microdilution (M38-A2) MEC/MIC; type: cell-based; details: read at 68 h
Experimental: All yeast and mold isolates were obtained from the American Type Culture Collection (ATCC). Isolates were plated on an agar medium to verify purity, and single colonies were picked. Aspergillus isolates were resubcultured on potato dextrose slants and incubated for 7 days at 35°C. Candida isolates were streaked on SDA plates and incubated for 24 h at 35°C. RPMI 1640 medium (HyClone Laboratories, Logan, UT) and the inoculum for each organism were prepared according to Clinical and Laboratory Standards Institute (CLSI) guidelines ([27][–][29]). Stock solutions for all test articles were prepared in 100% dimethyl sulfoxide (DMSO). Susceptibility testing was performed using CLSI broth microdilution methods for Candida (M27-A3) and Aspergillus (M38-A2). Amphotericin B was tested at a range of 0.06 to 64 μg/ml; all other antifungal agents were tested at 0.015 to 16 μg/ml. […] MIC values are reported as the lowest drug concentration to yield a 50% reduction in the growth of Candida species tested compared to the control well. Minimum effective concentration (MEC) values are reported as the lowest drug concentration to yield the stunted hyphal growth of Aspergillus species tested compared to that of the control well.

[2] = system: Candida guilliermondii ATCC 34134; assay: CLSI broth microdilution (M27-A3) MIC; type: cell-based; details: Meyerozyma guilliermondii, ATCC34134, 50% reduction in growth
Experimental: (§1) All yeast and mold isolates were obtained from the American Type Culture Collection (ATCC). Isolates were plated on an agar medium to verify purity, and single colonies were picked. Aspergillus isolates were resubcultured on potato dextrose slants and incubated for 7 days at 35°C. Candida isolates were streaked on SDA plates and incubated for 24 h at 35°C. RPMI 1640 medium (HyClone Laboratories, Logan, UT) and the inoculum for each organism were prepared according to Clinical and Laboratory Standards Institute (CLSI) guidelines ([27][–][29]). Stock solutions for all test articles were prepared in 100% dimethyl sulfoxide (DMSO). Susceptibility testing was performed using CLSI broth microdilution methods for Candida (M27-A3) and Aspergillus (M38-A2). Amphotericin B was tested at a range of 0.06 to 64 μg/ml; all other antifungal agents were tested at 0.015 to 16 μg/ml. Plates were incubated at 35°C and were read from the bottom using a plate viewer after 24 and 48 h for Candida and after 48 h for Aspergillus. MIC values are reported as the lowest drug concentration to yield a 50% reduction in the growth of Candida species tested compared to the control well. Minimum effective concentration (MEC) values are reported as the lowest drug concentration to yield the stunted hyphal growth of Aspergillus species tested compared to that of the control well.

[3] = system: Candida krusei ATCC 14243; assay: CLSI broth microdilution (M27-A3) MIC; type: cell-based; details: Pichia kudriavzevii, ATCC14243, 50% reduction in growth
Experimental: as §1

[4] = system: Candida tropicalis ATCC 90874; assay: CLSI broth microdilution (M27-A3) MIC; type: cell-based; details: 50% reduction in growth
Experimental: as §1

[5] = system: Candida albicans ATCC 90028; assay: CLSI broth microdilution (M27-A3) MIC; type: cell-based; details: 50% reduction in growth
Experimental: as §1

[6] = system: Candida glabrata ATCC 90030; assay: CLSI broth microdilution (M27-A3) MIC; type: cell-based; details: Nakaseomyces glabratus
Experimental: as §1

[7] = system: Candida lusitaniae ATCC 34134; assay: CLSI broth microdilution (M27-A3) MIC; type: cell-based; details: Clavispora lusitaniae, ATCC34134, 50% reduction in growth, read-out: MIC
Experimental: as §1

[8] = system: Candida parapsilosis ATCC 22019; assay: CLSI broth microdilution (M27-A3) MIC; type: cell-based; details: Lodderomyces parapsilosis, ATCC22019, 50% reduction in growth
Experimental: as §1

[9] = system: Aspergillus fumigatus ATCC 204305; assay: CLSI broth microdilution (M38-A2) MEC/MIC; type: cell-based
Experimental: as §1

[10] = system: Aspergillus fumigatus ATCC MYA-3626; assay: CLSI broth microdilution (M38-A2) MEC/MIC; type: cell-based; details: 48 h
Experimental: as §1

[11] = system: Aspergillus ochraceus ATCC 96919; assay: CLSI broth microdilution (M38-A2) MEC/MIC; type: cell-based
Experimental: as §1

[12] = system: Aspergillus flavus ATCC 22546; assay: CLSI broth microdilution (M38-A2) MEC/MIC; type: cell-based
Experimental: as §1

[13] = system: Aspergillus candidus ATCC 13686; assay: CLSI broth microdilution (M38-A2) MEC/MIC; type: cell-based
Experimental: as §1

[14] = system: Aspergillus niger ATCC 16888; assay: CLSI broth microdilution (M38-A2) MEC/MIC; type: cell-based
Experimental: as §1

[15] = system: Aspergillus spp.; assay: CLSI broth microdilution (M38-A2) MEC, whole panel; type: cell-based; details: 48 h, summary of Table 3
Experimental: as §1

[16] = single-dose pharmacokinetics in beagle dogs; details: male, beagle, dog, in vivo, iv, 1.4 mg/kg
Experimental: Four male, nonnaive beagle dogs received a single i.v. infusion (1.4 mg/kg) of test article over 10 min via a catheter placed in the cephalic vein. Blood draws (1.0 ml) were taken at 0.083, 0.33, 0.75, 1.5, 4.5, 12, 24, and 48 h. An additional blood draw at 72 h was obtained for CD101. Blood draws were taken from the jugular vein and were collected into K3 EDTA tubes. Following blood collection, the samples were immediately inverted several times and were held on wet ice pending centrifugation. The samples were centrifuged within ∼30 min of collection under refrigeration (∼5°C for ∼10 min at ∼2,000 g) to obtain plasma. The plasma samples were frozen immediately on dry ice after separation and were stored at approximately −70°C until analysis. Levels of test article in the plasma samples were measured by quantitative liquid chromatography-tandem mass spectrometry (LC-MS/MS) analysis compared to a calibration curve and an internal standard. Pharmacokinetic parameters were calculated from the plasma concentration-time data using standard noncompartmental methods and utilizing WinNonlin analysis software.

[17] = system: Candida albicans R303; assay: mouse model of disseminated candidiasis, fungal burden in kidneys; type: in vivo; details: kidneys at 24 h; for fungal burden relative to limit of detection: neutropenic CD-1 mice, 0.5, 1.5 or 4.5 mg/kg; for reductions in fungal burden vs infected control (statistical significance): neutropenic CD-1 mice, 0.5, 1.5 or 4.5 mg/kg 2 h after inoculation
Experimental: Candida albicans R303 was grown on Sabouraud dextrose agar (SDA) plates for 24 h at 35°C. Colonies were transferred to phosphate-buffered saline (PBS) and diluted to 3.8 × 10^5 CFU/ml. Female CD-1 mice (Charles River Laboratories, Portage, MI) were rendered neutropenic via injection with cyclophosphamide (150 mg/kg) 5 days and 2 days prior to inoculation. Each animal was infected by injecting 0.1 ml of inoculum into the tail vein. In the treatment groups, animals received 0.5, 1.5, or 4.5 mg/kg of test article 2 h after inoculation. Two groups of untreated, infected controls were used to evaluate fungal burden: at 2 h when test articles were administered in the treatment groups and at 24 h when the treatment groups were sacrificed. Kidneys were harvested at 2 h in one untreated control group and at 24 h in all other groups. The kidneys were homogenized in 2 ml of sterile phosphate-buffered saline, and 0.1-ml aliquots were spread on SDA plates and incubated at 35°C overnight. Fungal burden was determined based on the log10 C. albicans CFU counts from paired kidneys. Data were analyzed using a one-way analysis of variance (ANOVA) and the Dunnett multiple comparisons test comparing the test articles to the infected control group (GraphPad InStat version 3.1; GraphPad Software, San Diego, CA).

| Vd [16] | half-life [16] | Compound | MIC ([2]; 24 h) | MIC ([2]; 48 h) | MIC ([3]; 24 h) | MIC ([3]; 48 h) | MIC ([4]; ATCC90874, 24 h) | MIC ([4]; ATCC90874, 48 h) | MIC ([5]; ATCC90028, 24 h) | MIC ([5]; ATCC90028, 48 h) | MIC ([7]; 24 h) | MIC ([7]; 48 h) | MIC ([8]; 24 h) | MIC ([8]; 48 h) | fungal burden relative to limit of detection [17] | reductions in fungal burden vs infected control (statistical significance) [17] | further results |
| --- | --- | --- | --- | --- | --- | --- | --- | --- | --- | --- | --- | --- | --- | --- | --- | --- | --- |
|  |  | C[C@@H]1[C@H](O)[C@@H](C)/C=C/C=C/C=C/C=C/C=C/C=C/C=C/[C@H](O[C@@H]2O[C@H](C)[C@@H](O)[C@H](N)[C@@H]2O)C[C@@H]2O[C@](O)(C[C@@H](O)C[C@@H](O)[C@H](O)CC[C@@H](O)C[C@@H](O)CC(=O)O[C@H]1C)C[C@H](O)[C@H]2C(=O)O [Amphotericin B, amphotericin B] | ≤ 0.06 µg/mL | ≤ 0.06 µg/mL | 0.25 µg/mL (≈ 0.271 µM) | 0.5 µg/mL (≈ 0.541 µM) | 0.25 µg/mL (≈ 0.271 µM) | 0.25 µg/mL (≈ 0.271 µM) | ≤ 0.06 µg/mL | 0.125 µg/mL (≈ 0.135 µM) | ≤ 0.06 µg/mL | ≤ 0.06 µg/mL | 0.25 µg/mL (≈ 0.271 µM) | 0.5 µg/mL (≈ 0.541 µM) |  |  | MIC ([1]; Aspergillus clavatus, ATCC10058): ≤ 0.06 µg/mL; MIC ([6]; ATCC90030, 24 h, 50% reduction in growth, read-out: MIC): 0.06 µg/mL (≈ 0.0649 µM); MIC ([6]; ATCC90030, 48 h, 50% reduction in growth, read-out: MIC): 0.25 µg/mL (≈ 0.271 µM); MIC ([9]; Aspergillus fumigatus, ATCC204305, 48 h): 1 µg/mL (≈ 1.08 µM); MIC ([10]; Aspergillus fumigatus): 1 µg/mL (≈ 1.08 µM); MIC ([11]; Aspergillus ochraceus, ATCC96919, 48 h): 2 µg/mL (≈ 2.16 µM); MIC ([12]; Aspergillus flavus, ATCC22546, 48 h): 1 µg/mL (≈ 1.08 µM); MIC ([13]; Aspergillus candidus, ATCC13686, 48 h): ≤ 0.06 µg/mL; MIC ([14]; Aspergillus niger, ATCC16888, 48 h): 0.125 µg/mL (≈ 0.135 µM) |
|  |  | CC[C@H](C)C[C@H](C)CCCCCCCCC(=O)N[C@H]1C[C@@H](O)[C@@H](NCCN)NC(=O)[C@@H]2[C@@H](O)CCN2C(=O)[C@H]([C@H](O)CCN)NC(=O)[C@H]([C@H](O)[C@@H](O)c2ccc(O)cc2)NC(=O)[C@@H]2C[C@@H](O)CN2C(=O)[C@H]([C@@H](C)O)NC1=O [Caspofungin, caspofungin] | 0.25 µg/mL (≈ 0.229 µM) | > 16 µg/mL | 0.25 µg/mL (≈ 0.229 µM) | 0.5 µg/mL (≈ 0.457 µM) | 0.06 µg/mL (≈ 0.0549 µM) | 0.06 µg/mL (≈ 0.0549 µM) | 0.06 µg/mL (≈ 0.0549 µM) | 0.06 µg/mL (≈ 0.0549 µM) | 0.25 µg/mL (≈ 0.229 µM) | 0.25 µg/mL (≈ 0.229 µM) | 0.25 µg/mL (≈ 0.229 µM) | 0.5 µg/mL (≈ 0.457 µM) |  |  | MEC ([1]; stunted hyphal growth): 0.125 µg/mL; MEC values against all Aspergillus species tested [15]: ≤ 0.125 µg/mL; MIC ([6]; ATCC90030, 24 h): 0.125 µg/mL (≈ 0.114 µM); MIC ([6]; ATCC90030, 48 h): 0.125 µg/mL (≈ 0.114 µM); MEC ([9]; 48 h, stunted hyphal growth): 0.125 µg/mL; MEC ([10]; stunted hyphal growth): 0.125 µg/mL; MEC ([11]; 48 h, stunted hyphal growth): 0.06 µg/mL; MEC ([12]; 48 h, stunted hyphal growth): 0.06 µg/mL; MEC ([13]; 48 h, stunted hyphal growth): ≤0.015 µg/mL; MEC ([14]; 48 h, stunted hyphal growth): 0.06 µg/mL |
| 0.331 L/kg | 18.9 h | CCCCCOc1ccc(-c2ccc(-c3ccc(C(=O)N[C@H]4C[C@@H](O)[C@@H](OCCOCCOC)NC(=O)[C@@H]5[C@@H](O)[C@@H](C)CN5C(=O)[C@H]([C@@H](C)O)NC(=O)[C@H]([C@H](O)[C@@H](O)c5ccc(O)cc5)NC(=O)[C@@H]5C[C@@H](O)CN5C(=O)[C@H]([C@@H](C)O)NC4=O)cc3)cc2)cc1 [Compound 2] |  |  |  |  |  |  |  |  |  |  |  |  |  |  |  |
| 0.627 L/kg | 33.7 h | CCCCCOc1ccc(-c2ccc(-c3ccc(C(=O)N[C@H]4C[C@@H](O)[C@@H](OCCOCCN)NC(=O)[C@@H]5[C@@H](O)[C@@H](C)CN5C(=O)[C@H]([C@@H](C)O)NC(=O)[C@H]([C@H](O)[C@@H](O)c5ccc(O)cc5)NC(=O)[C@@H]5C[C@@H](O)CN5C(=O)[C@H]([C@@H](C)O)NC4=O)cc3)cc2)cc1 [Compound 3] |  |  |  |  |  |  |  |  |  |  |  |  | below the limit of detection for at least one of the doses |  |  |
| 0.361 L/kg | 28.9 h | CCCCCOc1ccc(-c2ccc(-c3ccc(C(=O)N[C@H]4C[C@@H](O)[C@@H](OCCOCCO)NC(=O)[C@@H]5[C@@H](O)[C@@H](C)CN5C(=O)[C@H]([C@@H](C)O)NC(=O)[C@H]([C@H](O)[C@@H](O)c5ccc(O)cc5)NC(=O)[C@@H]5C[C@@H](O)CN5C(=O)[C@H]([C@@H](C)O)NC4=O)cc3)cc2)cc1 [Compound 4] |  |  |  |  |  |  |  |  |  |  |  |  | below the limit of detection for at least one of the doses | statistically significant (P < 0.01) reductions in fungal burden at all doses |  |
| 0.687 L/kg | 21 h | CCCCCOc1ccc(-c2ccc(-c3ccc(C(=O)N[C@H]4C[C@@H](O)[C@@H](NCCNCCO)NC(=O)[C@@H]5[C@@H](O)[C@@H](C)CN5C(=O)[C@H]([C@@H](C)O)NC(=O)[C@H]([C@H](O)[C@@H](O)c5ccc(O)cc5)NC(=O)[C@@H]5C[C@@H](O)CN5C(=O)[C@H]([C@@H](C)O)NC4=O)cc3)cc2)cc1 [Compound 5] |  |  |  |  |  |  |  |  |  |  |  |  | below the limit of detection for at least one of the doses | statistically significant (P < 0.01) reductions in fungal burden at all doses |  |
